Where a SMILES comes first, the peptide text is derived from it. [ ]: non-standard residue; d: D form. pGlu = O=C1CC[C@@H](C(=O)O)N1; Nle = CCCC[C@H](N)C(=O)O; Nva = CCC[C@H](N)C(=O)O; Abu = CC[C@H](N)C(=O)O
Experiments:
[1] = system: Haloperidol-induced catalepsy; test: Inhibition of Haloperidol-induced catalepsy on rats; assay type: in vivo, male Wistar rats; conditions: 40 mg/kg Haloperidol s.c., compound i.v. 120 min later, probit analysis, observation time per compound
Description: (1) Inhibition of Haloperidol-induced catalepsy on rats (see J. Delay and P. Deniker: Compt. Rend. Congr. Med. Alenistes Neurologistes, 19, 497, Luxembourg, 1952)
The tests were performed on male Wistar rats weighing 160 to 180 g.
40 mg/kg of 4-(p-chlorophenyl)-1-(3-/p-fluorobenzoyl/propyl)-piperidin-4-ol(Haloperidol) were administered subcutaneously into the animals, and 120 minutes after this treatment the animals were checked for the appearance of catalepsy. The rats were divided into groups of 10 animals each, and treated intravenously with TRH or the new TRH analogues. The animals belonging to the control group received physiological saline. The catalepsy-suspending effects of the individual compounds were determined 15, 30, 60, 90 and 120 minutes after the treatment. The animals that had not changed their position for 30 seconds after placing their fore-paw onto a 7 cm high column were regarded as cataleptic.

[2] = system: locomotive activity induced by L-Dopa; test: Potentiation of locomotive activity induced on mice by L-Dopa; assay type: in vivo, male mice; conditions: Pargyline 40 mg/kg i.p., compound 20 mg/kg i.p., L-Dopa 100 mg/kg i.p., percent related to TRH; for Potentiation of the locomotive effect of L-Dopa % after 30': 30 min; for Potentiation of the locomotive effect of L-Dopa % after 60': 60 min; for Potentiation of the locomotive effect of L-Dopa % after 90': 90 min
Description: (2) Potentiation of locomotive activity induced on mice by L-Dopa (see The Thyroid Axis, Drugs and Behavior, p. 116, A. J. Prage Jr., Raven Press, New York, 1974)
The tests were performed on groups of 15 male mice each, weighing 18 to 22 g.
First, the animals were treated intraperitoneally with 40 mg/kg of N-methyl-N-propargyl-benzylamine (Pargyline), and then an intraperitoneal dosage of 20 mg/kg of TRH or a TRH-analogue was introduced, followed by an intraperitoneal dosage of 100 mg/kg of L-Dopa. The locomotive activity of the animals was recorded 30, 60 and 90 minutes after this treatment, and the level of potentiation was expressed in percents related to the results observed with TRH.

[3] = system: Reserpine hypothermy; test: Reserpine hypothermy-reversing effect on mice; assay type: in vivo, male mice; conditions: average of 10 animals; for Reserpine hypothermy reversing effect, Rectal temperature res.: 16 hours after reserpine 5 mg/kg i.p., before the tripeptide; for Reserpine hypothermy reversing effect, Rectal temperature norm.: prior to the administration of reserpine (baseline of the group); for Reserpine hypothermy reversing effect, Rectal temperature obs. time 1 h / Reserpine hypothermy reversing effect, Rectal temperature obs. time 2 h: reserpine 5 mg/kg i.p.; for Reserpine hypothermy reversing effect, Rectal temperature obs. time 1 h: 1 hour after 20 mg/kg of the tripeptide; for Reserpine hypothermy reversing effect, Rectal temperature obs. time 2 h: 2 hours after 20 mg/kg of the tripeptide
Description: (3) Reserpine hypothermy-reversing effect on mice (see B. M. Askew: Life Sci. 2, 725-730 /1963/)
The tests were performed on groups of 10 male mice each, weighing 18 to 22 g. Reserpine was administered into the animals in an intraperitoneal dosage of 5 mg/kg, and 16 hours later the animals were treated with 20 mg/kg of TRH or a tripeptide under examination.
The rectal temperature of the animals was measured prior to the administration of reserpine (marked by "norm." in Table 1), 16 hours after the administration of reserpine (marked by "res." in Table 1), furthermore 1 and 2 hours after the administration of the tripeptide (marked by "obs. time" in Table 1). The data listed in Table 1 are the averages of the temperatures observed on the 10 animals.

[4] = system: sleeping caused by hexobarbital; test: Influencing the duration of sleeping caused by hexobarbital; assay type: in vivo, male mice; conditions: mice, hexobarbital sodium 60 mg/kg i.v., 10 min later compound 20 mg/kg i.p.; control 38.4 ± 1.36 min.
Description: (4) Influencing the duration of sleeping caused by hexobarbital The tests were performed on groups of 10 male mice each. The animals were treated intravenously with 60 mg/kg of hexobarbital sodium ([…]; Bayer), and 10 minutes later 20 mg/kg of TRH or a tripeptide under examination were administered intraperitoneally into the animals. The sleeping times of the animals were recorded, averages were calculated for the individual groups, and the results were expressed as percents related to the control group.

[5] = system: Ethanol narcosis; test: Ethanol narcosis; assay type: in vivo; conditions: mice, 4.5 g ethanol i.p., 10 min later compound 20 mg/kg i.p.; control 46.9 ± 2.17 min.
Description: (5) Ethanol narcosis (see J. M. Cott et al.: J. Pharm. Exp. Ther. 196, 594 /1976/) The tests were performed on groups of 20 mice of both sexes, each weighing 18 to 22 g. […] of ethanol were introduced intraperitoneally into the animals, and 10 minutes later the animals were treated intraperitoneally with 20 mg/kg of TRH or a tripeptide under examination. The sleeping periods of the animals were recorded, averages were calculated for the individual groups, and the results were expressed as percents related to the control group.

[6] = system: TSH; test: Hormonal activity (TSH effect) on rats; assay type: in vivo, male Wistar rats; conditions: 20 mg/kg i.v., plasma TSH by radioimmune assay 15 min after treatment, relative activity, TRH = 100%
Description: (6) Hormonal activity (TSH effect) on rats
The tests were performed on groups of 7 or 8 male Wistar rats each, weighing 200 g. The animals were treated intravenously with 20 mg/kg of TRH or a tripeptide under examination. The TSH reaction of the animals was evaluated 15 minutes after this treatment, by subjecting the blood plasma to radioimmune assay. The relative activities were calculated by the four-point method using a TPA 101 computer, and the activity of TRH was regarded as 100%.

| Compound | Inhibition of Haloperidol catalepsy ED50 [1] [mg/kg] | Potentiation of the locomotive effect of L-Dopa % after 30' [2] [%] | Potentiation of the locomotive effect of L-Dopa % after 60' [2] [%] | Potentiation of the locomotive effect of L-Dopa % after 90' [2] [%] | Reserpine hypothermy reversing effect, Rectal temperature res. [3] [°C] | Reserpine hypothermy reversing effect, Rectal temperature norm. [3] [°C] | Reserpine hypothermy reversing effect, Rectal temperature obs. time 1 h [3] [°C] | Reserpine hypothermy reversing effect, Rectal temperature obs. time 2 h [3] [°C] | Decrease of sleeping period (% related to the control animals) Hexobarb. [4] [%] | Decrease of sleeping period (% related to the control animals) Ethanol [5] [%] | TSH effect [6] [%] |
| --- | --- | --- | --- | --- | --- | --- | --- | --- | --- | --- | --- |
| CC[C@H](NC(=O)[C@@H]1CCC(=O)N1)C(=O)N1CCC[C@H]1C(N)=O [Abu Pro H, L-Pyroglutamyl-L-α-aminobutyl-L-prolinamide] ([pGlu]-[Abu]-Pro-NH2) | 80 | 27 | 14 | 18 | 19.7 | 36.3 | 22.2 | 25.4 | 84 | 39 | 0.02 |
| NC(=O)[C@@H]1CCCCN1C(=O)[C@H](Cc1c[nH]cn1)NC(=O)[C@@H]1CCC(=O)N1 [His HPro H, L-Pyroglutamyl-L-histidyl-L-homoprolinamide] | 13.7 | 209 | 85 | 110 | 28.5 | 36.5 | 35.3 | 35.4 | 63 | 114 | 68.6 |
| CCNC(=O)[C@@H]1CCCN1C(=O)[C@H](CC(C)C)NC(=O)[C@@H]1CCC(=O)N1 [Leu Pro Et, L-Pyroglutamyl-L-leucyl-L-proline ethylamide] ([pGlu]-Leu-Pro-NHEt) | 56.6 | 102 | 90 | 201 | 28.7 | 36.2 | 30.7 | 33.4 | 126 | 65 | 0 |
| CCCC[C@H](NC(=O)[C@@H]1CCC(=O)N1)C(=O)N1CCC[C@H]1C(N)=O [Nleu Pro H, L-Pyroglutamyl-L-norleucyl-L-prolinamide] ([pGlu]-[Nle]-Pro-NH2) | 16.8 | 249 | 105 | 112 | 27.1 | 36.3 | 37.6 | 32.2 | 77 | 74 | 3.8 |
| CCC[C@H](NC(=O)[C@@H]1CCC(=O)N1)C(=O)N1CCC[C@H]1C(N)=O [Nva Pro H, L-Pyroglutamyl-L-norvalyl-L-prolinamide] ([pGlu]-[Nva]-Pro-NH2) | 11.4 | 254 | 156 | 214 | 25.9 | 36.2 | 36.4 | 32.0 | 114 | 77 | 0 |
| NC(=O)[C@@H]1CCCN1C(=O)[C@H](Cc1c[nH]cn1)NC(=O)[C@@H]1CCC(=O)N1 [TRH, L-pyroglutamyl-L-histidyl-L-prolinamide, reference compound] | 80 | 100 | 100 | 100 | 25.9 | 36.2 | 33.5 | 30.2 | 56 | 35 | 100.0 |

— US4299821A, “Tripeptides acting on the central nervous system and a process for the preparation thereof” (Richter Gedeon Vegyeszeti Gyar Rt., priority 1979, dated 1981)
